Reference: patent US20020137929A1, “1 - (3-heterocyclylphenyl) isothiourea, -isourea, -guanidine and -amidine herbicidal agents” (Intellectual Property Department, BASF Aktiengesellschaft, priority 1998, published 2002)

Key:
ABUTH (Velvetleaf) [1] = test: Postemergence herbicidal evaluation; format: in vivo, Abutilon theophrasti; details: postemergence
Procedure, shortened: (§1)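 Scores (0–9) reflect plant stand, vigor, malformation, size, chlorosis and general appearance relative to control, read 4 to 5 weeks after treatment and averaged where tests were repeated. Application: about 0.0156–0.500 kg/ha sprayed at 40 psi onto two-week seedlings.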

AMBEL (Ragweed, Common) = test: Postemergence herbicidal evaluation; format: in vivo, Ambrosia artemisifolia; details: postemergence
Procedure, shortened: as §1

ECHCG (Barnyardgrass) = test: Postemergence herbicidal evaluation; format: in vivo, Echinochloa crus-galli; details: postemergence
Procedure, shortened: as §1

SETVI (Foxtail, Green) [2] = test: Postemergence herbicidal evaluation; format: in vivo, Setaria viridis; details: postemergence
Procedure, shortened: as §1

[3] = test system: GLXMAW (Soybean, Williams); test: Postemergence herbicidal evaluation; format: in vivo, Glycine max, (L.) Merr. cv Williams; details: postemergence
Procedure, shortened: as §1

ORYSAT (Rice, Tebonnet) = test: Postemergence herbicidal evaluation; format: in vivo, Oryza sativa, (L.) Tebonnet; details: postemergence
Procedure, shortened: as §1

[4] = test system: TRZAWR (Wheat, Winter, cv Riband); test: Postemergence herbicidal evaluation; format: in vivo, Triticum aestivum; details: postemergence
Procedure, shortened: as §1

ABUTH (Velvetleaf) [5] = test: Preemergence herbicidal evaluation; format: in vivo, Abutilon theophrasti; details: rated 4-5 weeks after treatment
Procedure, shortened: (§2)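 Steps: mix seeds into potting soil; plant atop ~1 inch soil; spray compound in aqueous acetone (~0.0156-0.500 kg/ha equivalent); maintain in greenhouse with watering; rate visually 0-9 versus control at 4-5 weeks.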

CASOB (Sicklepod) = test: Preemergence herbicidal evaluation; format: in vivo, Cassia obtusifolia; details: rated 4-5 weeks after treatment
Procedure, shortened: as §2

SETVI (Foxtail, Green) [6] = test: Preemergence herbicidal evaluation; format: in vivo, Setaria viridis; details: rated 4-5 weeks after treatment
Procedure, shortened: as §2

MOOVA (Monochoria) = test: Preemergence weed control under flooded paddy conditions; format: in vivo, Monochoria vaginalis; details: rated 3-4 weeks after treatment
Procedure, shortened: (§3)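 Seeds or propagules sown in top 0.5 cm of silt loam soil, flooded 1.5 to 3 cm above surface throughout. Compound in 50/50 v/v aqueous/acetone pipetted into flood water at about 0.0313 to 0.500 kg/ha. Visual 0-9 rating versus control after three to four weeks in greenhouse.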

[7] = test system: SAGPY (Arrowhead (Pygmaea)); test: as above; format: in vivo, Sagittaria pygmaea; details: rated 3-4 weeks after treatment
Procedure, shortened: as §3

CYPIR (Rice Flatsedge) = test: Postemergence weed control under flooded paddy conditions; format: in vivo, Cyperus iria; details: postemergence weeds, 3-4 weeks after treatment
Procedure, shortened: (§4)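 Flood-water application, about 0.0313–0.500 kg/ha a.i. in aqueous/acetone 50/50 v/v; water depth 1.5–3 cm throughout. Weeds 3–5 cm, rice 1.5–2.5 leaf. Greenhouse; 0–9 visual rating vs control at 3–4 wk.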

[8] = test system: SAGPY (Arrowhead (Pygmaea)); test: as above; format: in vivo, Sagittaria pygmaea; details: postemergence weeds, 3-4 weeks after treatment
Procedure, shortened: as §4

## CN1C(=O)CS/C1=N/c1cc(-n2c(=O)cc(C(F)(F)F)n(C)c2=O)c(F)cc1Cl [Compound 7]
ABUTH (Velvetleaf) [1]; rate 0.0157 kg/ha
  ABUTH herbicidal rating: 9.0
ABUTH (Velvetleaf) [1]; rate 0.0313 kg/ha
  ABUTH herbicidal rating: 9.0
ABUTH (Velvetleaf) [1]; rate 0.0625 kg/ha
  ABUTH herbicidal rating: 9.0
ABUTH (Velvetleaf) [1]; rate 0.1250 kg/ha
  ABUTH herbicidal rating: 9.0
AMBEL (Ragweed, Common); rate 0.0157 kg/ha
  AMBEL herbicidal rating: 5.0
AMBEL (Ragweed, Common); rate 0.0313 kg/ha
  AMBEL herbicidal rating: 5.0
AMBEL (Ragweed, Common); rate 0.0625 kg/ha
  AMBEL herbicidal rating: 7.0
AMBEL (Ragweed, Common); rate 0.1250 kg/ha
  AMBEL herbicidal rating: 9.0
ECHCG (Barnyardgrass); rate 0.0157 kg/ha
  ECHCG herbicidal rating: 2.0
ECHCG (Barnyardgrass); rate 0.0313 kg/ha
  ECHCG herbicidal rating: 0.0
ECHCG (Barnyardgrass); rate 0.0625 kg/ha
  ECHCG herbicidal rating: 3.0
ECHCG (Barnyardgrass); rate 0.1250 kg/ha
  ECHCG herbicidal rating: 4.0
SETVI (Foxtail, Green) [2]; rate 0.0157 kg/ha
  SETVI herbicidal rating: 5.0
SETVI (Foxtail, Green) [2]; rate 0.0313 kg/ha
  SETVI herbicidal rating: 4.0
SETVI (Foxtail, Green) [2]; rate 0.0625 kg/ha
  SETVI herbicidal rating: 9.0
SETVI (Foxtail, Green) [2]; rate 0.1250 kg/ha
  SETVI herbicidal rating: 9.0
[3]; rate 0.0157 kg/ha
  GLXMAW herbicidal rating: 5.0
[3]; rate 0.0313 kg/ha
  GLXMAW herbicidal rating: 6.5
[3]; rate 0.0625 kg/ha
  GLXMAW herbicidal rating: 7.5
[3]; rate 0.1250 kg/ha
  GLXMAW herbicidal rating: 7.5
ORYSAT (Rice, Tebonnet); rate 0.0157 kg/ha
  ORYSAT herbicidal rating: 4.5
ORYSAT (Rice, Tebonnet); rate 0.0313 kg/ha
  ORYSAT herbicidal rating: 4.0
ORYSAT (Rice, Tebonnet); rate 0.0625 kg/ha
  ORYSAT herbicidal rating: 4.5
ORYSAT (Rice, Tebonnet); rate 0.1250 kg/ha
  ORYSAT herbicidal rating: 6.5
[4]; rate 0.0157 kg/ha
  TRZAWR herbicidal rating: 4.5
[4]; rate 0.0313 kg/ha
  TRZAWR herbicidal rating: 3.0
[4]; rate 0.0625 kg/ha
  TRZAWR herbicidal rating: 5.0
[4]; rate 0.1250 kg/ha
  TRZAWR herbicidal rating: 6.0
ABUTH (Velvetleaf) [5]; rate 0.0157 kg/ha
  ABUTH preemergence herbicidal rating: 9.0
ABUTH (Velvetleaf) [5]; rate 0.0313 kg/ha
  ABUTH preemergence herbicidal rating: 9.0
ABUTH (Velvetleaf) [5]; rate 0.0625 kg/ha
  ABUTH preemergence herbicidal rating: 9.0
ABUTH (Velvetleaf) [5]; rate 0.1250 kg/ha
  ABUTH preemergence herbicidal rating: 9.0
ABUTH (Velvetleaf) [5]; rate 0.2500 kg/ha
  ABUTH preemergence herbicidal rating: 9.0
CASOB (Sicklepod); rate 0.0157 kg/ha
  CASOB preemergence herbicidal rating: 9.0
CASOB (Sicklepod); rate 0.0313 kg/ha
  CASOB preemergence herbicidal rating: 9.0
CASOB (Sicklepod); rate 0.0625 kg/ha
  CASOB preemergence herbicidal rating: 9.0
CASOB (Sicklepod); rate 0.1250 kg/ha
  CASOB preemergence herbicidal rating: 8.0
CASOB (Sicklepod); rate 0.2500 kg/ha
  CASOB preemergence herbicidal rating: 9.0
SETVI (Foxtail, Green) [6]; rate 0.0157 kg/ha
  SETVI preemergence herbicidal rating: 9.0
SETVI (Foxtail, Green) [6]; rate 0.0313 kg/ha
  SETVI preemergence herbicidal rating: 9.0
SETVI (Foxtail, Green) [6]; rate 0.0625 kg/ha
  SETVI preemergence herbicidal rating: 9.0
SETVI (Foxtail, Green) [6]; rate 0.1250 kg/ha
  SETVI preemergence herbicidal rating: 9.0
SETVI (Foxtail, Green) [6]; rate 0.2500 kg/ha
  SETVI preemergence herbicidal rating: 9.0
MOOVA (Monochoria); 0.0313 kg/ha
  Herbicidal rating MOOVA: 9.0
MOOVA (Monochoria); 0.0625 kg/ha
  Herbicidal rating MOOVA: 9.0
MOOVA (Monochoria); 0.1250 kg/ha
  Herbicidal rating MOOVA: 9.0
MOOVA (Monochoria); 0.2500 kg/ha
  Herbicidal rating MOOVA: 9.0
[7]; 0.0313 kg/ha
  Herbicidal rating SAGPY: 2.0
[7]; 0.0625 kg/ha
  Herbicidal rating SAGPY: 4.0
[7]; 0.1250 kg/ha
  Herbicidal rating SAGPY: 8.0
[7]; 0.2500 kg/ha
  Herbicidal rating SAGPY: 9.0
CYPIR (Rice Flatsedge); rate 0.0313 kg/ha
  Herbicidal rating CYPIR: 8.5
CYPIR (Rice Flatsedge); rate 0.0625 kg/ha
  Herbicidal rating CYPIR: 9.0
CYPIR (Rice Flatsedge); rate 0.1250 kg/ha
  Herbicidal rating CYPIR: 9.0
CYPIR (Rice Flatsedge); rate 0.2500 kg/ha
  Herbicidal rating CYPIR: 9.0
[8]; rate 0.0313 kg/ha
  Herbicidal rating SAGPY: 3.0
[8]; rate 0.0625 kg/ha
  Herbicidal rating SAGPY: 5.5
[8]; rate 0.1250 kg/ha
  Herbicidal rating SAGPY: 7.5
[8]; rate 0.2500 kg/ha
  Herbicidal rating SAGPY: 8.5
